# Where a chain is given by its changes, count along the chain named. Entries after “also recorded” stand apart in the source; their conditions may differ. Where a SMILES comes first, the peptide text is derived from it. The star is where a group is joined. Cbz = O=C(OCc1ccccc1)*; CH2F = FC*
# Assays:
# UCHL1 [1] = target: T1, UCHL1 (Homo sapiens, UniProt P09936); test: SW1271 cell activity-based probe target engagement assay
# T1 sequence (P09936 1-223): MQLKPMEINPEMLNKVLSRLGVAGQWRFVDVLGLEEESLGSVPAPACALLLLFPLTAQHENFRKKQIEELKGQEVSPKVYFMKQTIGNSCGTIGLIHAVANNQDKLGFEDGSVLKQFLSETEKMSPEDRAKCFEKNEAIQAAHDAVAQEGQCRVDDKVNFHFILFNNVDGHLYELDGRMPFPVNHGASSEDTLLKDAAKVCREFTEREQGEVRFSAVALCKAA
# Method: UCHL1 is a key promoter of cell invasion and metastasis in small cell lung cancer but not necessarily required for cell viability or proliferation. Thus, we chose to assess the efficacy of targeting UCHL1 using the SW1271 small cell lung cancer cell line. […] The Ub-ABP assay was used to confirm on target engagement of UCHL1 within these cells.
# […] Cell pellets were thawed on ice before resuspending in 200 µL lysis buffer (50 mM Tris pH 7.6, 150 mM NaCl, 5 mM MgCl2, 0.5 mM EDTA, 5 mM DTT, 2 mM ATP, 0.5% NP-40, 10% v/v glycerol) and incubating on ice for 30 min with vigorous vortexing every 10 min. Cell lysate was clarified by centrifugation (17,000× g for 10 min) and the supernatant was collected, and the concentration was determined by Bradford (performed according to manufacturer’s protocol). Cells were normalized to 2 mg mL^−1. To each reaction mixture was added 36 µL of lysate and 2 µL of HA-Ub-VME or lysis buffer. This was incubated for 30 min at room temperature before quenching with 15 µL of 4X Laemmli buffer and heating to 95 °C for 5 min. Samples were subjected to SDS-PAGE and immunoblot.
# UCHL1 C90A = target: T2, UCHL1 C90A (Homo sapiens, UniProt P09936, C90A); test: Click reaction and in-gel fluorescence, recombinant protein; assay type: binding; details: 10 µM inhibitor, 3 h, Cy5-Azide click
# T2 construct: His (N); made in house
# T2 sequence (P09936 1-223 C90A): T1 sequence (P09936 1-223) with C90A
# Method: (§1) A common shortcoming to covalent inhibitors is that the reactive electrophilic groups may partake in non-specific labeling of off-target cysteines. To investigate if alternative cysteines are affected on UCHL1 we used analog 34 to confirm that the fluoromethylketone derivatives only conjugate Cys90. […] Additionally, samples were analyzed by mass spectrometry to increase sensitivity for detection of any non-Cys90 adducts. […]
# (§2) Solutions containing 1 mg/mL recombinant UCHL1^WT or UCHL1^C90A (from pET15b) (49 µL) was incubated with 10 µM inhibitor for 3 h at room temperature in PBS starting block buffer (Thermo Scientific # 37538). After 3 h, 6 µL of a freshly prepared cocktail was added to each sample, consisting of: 3 µL 1.7 mM THPTA in 1:4 DMSO/tBuOH (100 µM final concentration), 1 µL 50 mM CuSO4 (1 mM final concentration), 1 µL TCEP HCl (25 µM final concentration), and 1 uL Cy5-Azide (#AZ118, Click Chemistry Tools, Scottsdale, AZ, USA; 25 µM final concentration). The samples were allowed to react for 2 h at room temperature protected from light before precipitating the sample by adding 600 µL MeOH, 150 µL chloroform, and 400 µL water, vortexing between each addition. The samples were pelleted by centrifuging at […] for 5 min. […] The samples were then analyzed by SDS-PAGE and imaged on an Odyssey system (LI-COR, Lincoln, NE, USA) and subsequently Coomassie stained.
# UCHL1^WT = target: T3, UCHL1^WT (Homo sapiens, UniProt P09936); test: as above; assay type: binding; details: 10 µM inhibitor, 3 h, Cy5-Azide click
# T3 construct: His (N); made in house
# T3 sequence (P09936 1-223): T1 sequence (P09936 1-223)
# Method: as §1, §2
# UCHL1 [2] = target: T1, UCHL1; test: Fluorescence-based Ub-Rho deubiquitinase activity assay; assay type: biochemical; parameters: made in house; details: IC50, after approximately 112 min preincubation
# His-UCHL1 = target: T4, His-UCHL1 (Homo sapiens, UniProt P09936); test: Ub binding affinity analysis using biolayer interferometry; details: His-UCHL1 preincubated with 1 (2 mM) overnight at room temperature
# T4 construct: made in house
# T4 sequence (P09936 1-223): T1 sequence (P09936 1-223)
# Method: The concentration of His-UCHL1 was determined by A280 on a NanoDrop system (Thermo Scientific), after which His-UCHL1 was diluted into BLI buffer [1× PBS containing 0.05% (v/v) Tween 20 and 0.1% (w/v) bovine serum albumin (BSA)]. […] The Ni-NTA biosensor was dipped first into BLI buffer (initial baseline, 60 s), then into the His-UCH protein wells (loading step, 300 s), then into BLI buffer alone (baseline step, 60 s), then into the lowest concentration of UbV (association step, 120 s), and then into buffer alone (dissociation step, 100 s). A reference sensor loaded with protein was dipped into wells containing only buffer to adjust for protein-buffer signals. The association-dissociation was repeated with increasing concentrations of UbV. All measurements were taken at 30 °C.
# Octet RED384 Data Analysis Software (ForteBio, version 9.0.0.15) was used to collect and analyze the raw data for the association and dissociation curves.
# UCHL5 = target: T5, UCHL5 (Homo sapiens, UniProt Q9Y5K5); parameters: method as in PMID 22617491; details: concentrations up to 400 µM; cited from earlier work
# T5 sequence (Q9Y5K5 1-245 limits assumed): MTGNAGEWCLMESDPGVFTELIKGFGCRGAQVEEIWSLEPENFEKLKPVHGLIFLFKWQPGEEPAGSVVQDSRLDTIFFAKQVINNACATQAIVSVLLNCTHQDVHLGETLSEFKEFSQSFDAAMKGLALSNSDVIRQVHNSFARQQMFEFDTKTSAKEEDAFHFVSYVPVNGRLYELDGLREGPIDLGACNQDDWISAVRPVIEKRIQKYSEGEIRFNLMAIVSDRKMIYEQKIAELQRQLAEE
SMILES,selectivity over other DUBs in SW1271 cells (HA blot) (UCHL1 [1]; HA immunoblot),"HA-Ub-VME complex formation with UCHL1 in SW1271 cells (UCHL1 [1]; dose-response, UCHL1 immunoblot)",covalent adduct with UCHL1 C90A (in-gel fluorescence) (UCHL1 C90A),covalent adduct with WT-UCHL1 (in-gel fluorescence) (UCHL1^WT),IC50 (UCHL1 [2]) [µM],effect of conjugated 1 on UCHL1:Ub interaction (His-UCHL1),activity toward UCHL5 (UCHL5)
C#Cc1ccc(COC(=O)N[C@H](C(=O)N[C@@H](C)C(=O)N[C@@H](CCC(=O)OC)C(=O)CF)C(C)C)cc1 [Cpd 34],demonstrated selectivity over other DUBs,inhibited HA-Ub-VME complex formation with UCHL1 in a dose-dependent manner,does not form an adduct; also recorded: no fluorescent bands were observed,forms a covalent adduct with WT-UCHL1; also recorded: formed a covalent adduct,,,
"COC(=O)CC[C@H](NC(=O)[C@H](C)NC(=O)[C@@H](NC(=O)OCc1ccccc1)C(C)C)C(=O)CF [Cpd 1, benzyloxycarbonyl-Val-Ala-Glu(γ-methoxy)-fluoromethylketone] (Cbz-Val-Ala-Glu(OMe)-CH2F)",,,,,29,completely abrogated the ability of UCHL1 to interact with Ub,not possess any activity
